In US8129383B2, “Aminopterin dosage forms and methods for inflammatory disorders” (Aminopterin LLC, priority 2005, dated 2012):
Read-outs that look alike come from different tables or passages of the source.

Key:
ma104 cells = assay: adenosine release from ma104 cells; assay type: cell-based; conditions: 8 hours incubation
Experimental: Various concentrations of aminopterin were incubated with ma104 cells for 8 hours, and the release of adenosine measured (FIG. 5).

[1] = tested on: influx of neutrophils (PMNs) in hyperoxia; assay: rat oxygen-toxicity model of bronchopulmonary dysplasia; assay type: in vivo, rats; conditions: single 0.2 mg/kg ip injection day 2 after birth, 95% oxygen, sacrifice day 8
Text: Mason, S, N.; Richard L. Auten, J. Lung inflammation in hyperoxia can be prevented by antichemokine treatment in newborn rats. American Journal of Respiratory Critical Care Medicine 2000, 162, 2316-2323]. […] Litter sizes were the same. […] Dams were rotated daily between air and oxygen cages to avoid maternal oxygen toxicity. On day 8, the pups were weighed and then euthanized, tracheas are cannulated and the pulmonary artery is perfused with saline. Bronchoalveolar lavage fluid (BALF) was then obtained for cell count and chemokine analysis (FIG. 3). The lungs were removed and snap frozen for myeloperoxidase activity assay (neutrophil accumulation within lung parenchyma) and 8-isoprostane, a marker of lipid oxidation. The pulmonary artery was perfused and the lungs were inflation-fixed with buffered formalin at 25 cm H2O.

psoriasis = conditions: cited from earlier work
[2] = target: T1, partially purified chicken liver DHFR (Gallus gallus, UniProt P00378); assay: radioligand DHFR binding assay
T1 sequence (P00378 1-189): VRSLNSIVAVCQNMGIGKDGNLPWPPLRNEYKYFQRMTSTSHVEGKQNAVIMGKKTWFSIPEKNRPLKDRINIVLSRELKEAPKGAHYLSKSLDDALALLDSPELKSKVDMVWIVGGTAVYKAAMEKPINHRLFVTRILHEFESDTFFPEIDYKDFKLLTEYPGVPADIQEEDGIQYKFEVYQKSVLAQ
Experimental: 16:1458, 1998]. […] After the standard curve is established, a portion of the 200 μM supernatant prepared above for an aminopterin tablet is further diluted 10,000 using two serial 100-fold dilutions with water to provide an approximately 20 nM solution of aminopterin. The DHFR assay is performed with 100 μL of the 20 nM solution, as well as several 2-fold serial dilutions, and the result expressed as pmol/ml aminopterin. The total number of pmol of aminopterin is calculated using the relationship, pmol/ml×10,000×11.35. The total number of mg in the tablet is then calculated using the relationship, total pmol×(10^−6 μmole/pmol)×0.44 mg/μmole.

dermal inflammation = conditions: cumulative weekly doses of 0.35 mg/kg; cited from earlier work
canine atopic dermatitis = tested on: canine atopic dermatitis
Experimental: […] Subjects were assessed at baseline and at weeks 2 and 4 of the trial, and every other week of the 1-year extension phase.
Subjects were assessed at baseline and at weeks 2 and 4.

[3] = storage of aqueous compositions; assay type: physicochemical; conditions: six months of storage; water converts aminopterin to folic acid
Text: Because of their ease of administration, tablets and capsules represent the most advantageous oral dosage form in adults, in which case solid pharmaceutical carriers are employed. If desired, tablets may be coated by standard aqueous or nonaqueous techniques. The parenteral dosage form can consist of a sterile solution of the active ingredient, either in its free or salt form, in physiological buffer or sterile water. In addition, parenteral solutions can contain preservatives such as benzalkonium chloride, methyl- or propyl-paraben and chlorobutanol. Suitable pharmaceutical carriers are described in Remington's Pharmaceutical Sciences, a standard reference text in this field. […] Accordingly, such aqueous compositions are best stored desiccated and hydrated within several hours to several days prior to patient administration.

Nc1nc(N)c2nc(CNc3ccc(C(=O)N[C@@H](CCC(=O)O)C(=O)O)cc3)cnc2n1 [aminopterin, 4-amino-pteroyl-L-glutamic acid]
EC50 (ma104 cells): 0.5 nM
number of neutrophils in bronchoalveolar lavage fluid [1]: statistically significant reduction
frequency of toxic reactions (psoriasis; schedule (i): 1 tablet (0.5 mg) daily for six days): 0%
frequency of toxic reactions (psoriasis; schedule (ii): 1 tablet daily six days, one week rest, 1 tablet daily six days): 2.5%
frequency of toxic reactions (psoriasis; schedule (iii): 1 tablet daily for 12 days): 13%
frequency of toxic reactions (psoriasis; schedule (iv): 2 tablets daily for six days): 30%
displacement of 3H-methotrexate and binding to DHFR, aminopterin vs methotrexate [2]: equivalent
efficacy (dermal inflammation): demonstrated the efficacy
toxicity (dermal inflammation): the animals became severely leucopenic and one subject died
median improvement from baseline in PVAS score (canine atopic dermatitis; 5 dogs, oral 0.01 mg/kg/week, 4 weeks, range −4 to +2): −4
median improvement from baseline in CADESI score (canine atopic dermatitis; 5 dogs, oral 0.01 mg/kg/week, 4 weeks, range −11 to −91%): −59%
median improvement from baseline in composite CADESI×pruritis score (canine atopic dermatitis; 5 dogs, oral 0.01 mg/kg/week, 4 weeks, range −97 to +24%): −60%
clinical evidence of hematologic (CBC) or liver toxicity (LFTs) (canine atopic dermatitis; dogs treated up to 20 weeks at 0.01 mg/kg/week): no clinical evidence of hematologic (CBC) or liver toxicity (LFTs)
overall evaluation of efficacy by owners (canine atopic dermatitis; median score 2, range 1 to 4, oral 0.01 mg/kg/week, 4 weeks): fair (fair (25-50%))
overall evaluation of efficacy by clinicians (canine atopic dermatitis; median score 2, range 1 to 5, oral 0.01 mg/kg/week, 4 weeks): fair (fair (25-50%))
stability of parenteral, oral liquid or other aqueous compositions [3]: accumulate folic acid to undesirable levels
